From US11286278B2, “DPEP-1 binding agents and methods of use” (Arch Biopartners, Inc., priority 2018, dated 2022)
Ends that are not written are not given here.

Key:
rat DPEP-1 = target: T1, rat DPEP-1 (Rattus norvegicus, UniProt P31430); test: Immunofluorescence binding of Alexa-488 conjugated peptides to Cos-1 cells transfected with rat DPEP-1; conditions: Alexa-488 conjugate, on ice 30 minutes
T1 construct: expressed in transfected cells; host or cells: Cos-1
Protocol: Cos-1 cells were transiently transfected with either 3 or 5 μg of membrane dipeptidase (DPEP-1) cDNA corresponding to the rat (Shown in FIG. 5A), human (Shown in FIG. 5B), or canine (Shown in FIG. 5E) DPEP-1 gene using Lipofectamine 2000 (Invitrogen) reagent in OptiMEM medium. 24 hours after transfection, DPEP-1 expresisng cells were re-seeded on collagen coated (neutralized) wells in 24 well plates and allowed to grow for 24 hours at 37° C. […] Cells were blocked with FBS/NBSA/Tween in PBS for 30 minutes on ice. Cells were then washed with PBS and incubated with Alexa-488 (green) conjugated LSALT, GFE-1, control peptide or DPEP-1 antibody ( 1/100) (Sigma) on ice for 30 minutes. […] After incubation, cells were washed with PBS and treated with 10 mg/ml biotin transfer peptide (LSALT, GFE-1 or Control Peptide (KGAL)] for 10 minutes. Cells were then washed with PBS and biotin transfer was enabled by UV activation of the aryl azide groups for 15 minutes at 363 nm. Residual fluid was removed and monolayers were lysed either with octyl-glucoside/RIPA or 8M urea. Isolated supernatants were rotated with 50 μl of neutr-avidin agarose beads at 4° C. for 24 hours. Beads were washed with corresponding buffers, boiled in Laemmli buffer and analyzed by western blot using a DPEP-1 specific antibody (Proteintech).

serum cytokines = test: Plasma cytokine levels after LPS, Luminex Cytokine Arrays; type: in vivo, mouse; conditions: SCID mice, LPS 0.5 mg/kg i.p., 4 hours
Protocol: 6-8 weeks old SCID mice were given an intraperitoneal injection of LPS (0.5 mg/kg) 5 minutes prior to intravenous injection of LSALT peptide or a control peptide. 4 hours following injection of LPS, blood was collected by cardiac puncture and changes in plasma cytokine levels were assessed using Luminex Cytokine Arrays. Bar graphs show the levels of different inflammatory mediators released in the plasma in the presence or absence of LSALT peptide and control peptide.
6-8 weeks old SCID mice were given an intraperitoneal injection of LPS (0.5 mg/kg) 5 minutes prior to intravenous injection of LSALT peptide or a control peptide. 4 hours following injection of LPS, blood was collected by cardiac puncture and changes in plasma cytokine levels were assessed using Luminex Cytokine Arrays. Bar graphs show the level of the anti-inflammatory cytokine IL-10 released in the plasma in LSALT peptide or control peptide in two independent experiments.

[1] = test system: DPEP1-expressing COS1 monolayers; test: Cancer cell binding to DPEP1-expressing COS1 monolayers; type: cell-based; conditions: LSALT 50 μM
Protocol: Cos-1 cells were transfected with 3 μg of human DPEP-1 cDNA. Transfected cells were reseeded 24 hours after on 12 or 24 well places. 48 hours later, 70 W melanoma cells expressing stable GFP-luciferase were harvested using Puck's EDTA and 10×10^3 cells were seeded on top of the DPEP-1 expressing Cos-1 monolayer. Cells were incubated for 4 hours at 37 C. After incubation cells were vigorously washed two times with PBS. Cells were then fixed using paraformaldehyde (4%). The number 70 W melanoma cells bound/adhered were counted under 10× magnification over 10 different field of views using an inverted fluorescence microscope (FIG. 24A). […] A unpaired 2-tailed Student's t-test was performed to compare the binding of 70 W melanoma cells to DPEP-1 transfected cells against the control of mock transfected cells. Values shown are from three independent experiments; asterisks (***) indicate P<0.001 as compared with mock transfected cells.
LSALT decreases binding of metastatic cancer cells to DPEP1-expressing COS1 monolayers in vitro. […] FIGS. 21B-C show quantification of murine melanoma B16-F10 (B) or murine breast cancer E0771.LMB (C) cells that bind to COS1 (control) or DPEP1 COS1 in the absence or presence of LSALT (50 μM).

human DPEP3 = target: T2, human DPEP3 (Homo sapiens, UniProt Q9H4B8); test: Immunofluorescence binding to Cos-1 cells transfected with human DPEP3; conditions: Alexa-488 conjugate
T2 construct: expressed in transfected cells; host or cells: Cos-1
T2 sequence (Q9H4B8 36-463): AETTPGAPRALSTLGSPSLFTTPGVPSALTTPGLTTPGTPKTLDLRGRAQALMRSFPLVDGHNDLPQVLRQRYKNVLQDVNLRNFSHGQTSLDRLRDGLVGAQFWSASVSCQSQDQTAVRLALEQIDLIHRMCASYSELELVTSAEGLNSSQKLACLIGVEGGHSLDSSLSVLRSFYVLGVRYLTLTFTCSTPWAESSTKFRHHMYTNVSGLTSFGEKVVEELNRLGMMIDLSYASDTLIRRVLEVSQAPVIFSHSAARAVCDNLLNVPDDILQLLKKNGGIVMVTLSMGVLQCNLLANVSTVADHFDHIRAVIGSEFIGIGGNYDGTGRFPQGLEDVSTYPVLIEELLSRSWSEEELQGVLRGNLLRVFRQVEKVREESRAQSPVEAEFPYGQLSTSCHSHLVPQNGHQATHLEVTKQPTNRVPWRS
Protocol: Cos-1 cells were transiently transfected with either 3 μg of human DPEP-1, DPEP2, or DPEP3 gene using Lipofectamine 2000 (Invitrogen) reagent in OptiMEM medium. 24 hours after transfection, DPEP-1, DPEP2, or DPEP3 expressing cells were re-seeded on collagen coated (neutralized) wells in 24 well plates and allowed to grow for 24 hours at 37° C. […] Cells were blocked with FBS/NBSA/Tween in PBS for 30 minutes on ice. Cells were then washed with PBS and incubated with LSALT or GFE-1, conjugated with Alexa-488 (green). After incubation, cells were washed with PBS and stained with DAPI for 5 minutes on ice. Cells were then washed with PBS and fixed using 4% paraformaldehyde and immunofluorescence microscopy was performed to assess binding. Representative photomicrographs are shown for each experimental condition (n=3) in FIG. 6A. Proteins from DPEP-1, DPEP2 and DPEP3 transfected cells were isolated after 48 hours using octyl-glucoside/RIPA lysis buffer and western blot analysis was performed to assess DPEP-1, DPEP2 and DPEP3 protein expression using specific antibodies; DPEP-1 antibody (Sigma), DPEP2 (Abcam) and DPEP3 (Santacruz). Blots were stripped and reprobed with an anti-β-actin.

T1 sequence (P31430 17-384): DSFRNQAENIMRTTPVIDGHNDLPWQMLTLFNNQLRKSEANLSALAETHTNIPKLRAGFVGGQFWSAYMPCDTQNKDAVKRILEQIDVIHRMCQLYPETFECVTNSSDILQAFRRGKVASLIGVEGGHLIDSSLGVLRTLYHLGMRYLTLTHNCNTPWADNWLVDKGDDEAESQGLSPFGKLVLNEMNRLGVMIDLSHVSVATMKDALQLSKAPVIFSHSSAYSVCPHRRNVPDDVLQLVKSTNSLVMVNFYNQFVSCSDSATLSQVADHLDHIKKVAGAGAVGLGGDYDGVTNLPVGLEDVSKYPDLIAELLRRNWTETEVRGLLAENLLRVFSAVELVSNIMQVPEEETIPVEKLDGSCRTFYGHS

binding of fluorescently labelled peptide to rat DPEP-1 transfected Cos-1 cells (rat DPEP-1): Binds
binding to human DPEP3 transfected Cos-1 cells (human DPEP3): does not Bind
Substance: H-LSALTPSPSWLKYKAL [LSALT]
levels of serum cytokines in response to LPS (serum cytokines): attenuates the levels of a number of different serum cytokines
plasma IL-10 in response to LPS (serum cytokines): increases the production of the anti-inflammatory mediator IL-10
binding of murine breast cancer cells (E0771.LMB) to DPEP1 transfected COS-1 cells [1]: inhibits binding of murine cancer cells to DPEP1
binding of murine melanoma cells (B16-F10) to DPEP1 transfected COS-1 cells [1]: inhibits binding of murine cancer cells to DPEP1
